Assay: refractive index (Na D-line) (dimensionless); xn = mol fraction of the nth substance listed
Settings: 100 kPa, Liquid, Standard Abbe refractometry

CCOC(=O)CCC(=O)OCC [diethyl butanedioate] + CCCCCCO
refractive index
Settings	x1 = 0.0999	x1 = 0.2	x1 = 0.3001	x1 = 0.4	x1 = 0.4999	x1 = 0.6	x1 = 0.7002	x1 = 0.7999	x1 = 0.9	x1 = 1
288.15 K	1.4192	1.419	1.4189	1.4191	1.4193	1.4197	1.4202	1.4207	1.4212	1.4217
293.15 K	1.4172	1.4169	1.4168	1.417	1.4172	1.4176	1.418	1.4185	1.419	1.4195
298.15 K	1.4152	1.4148	1.4147	1.4148	1.415	1.4154	1.4158	1.4163	1.4168	1.4173
303.15 K	1.4131	1.4127	1.4126	1.4127	1.4129	1.4133	1.4136	1.4142	1.4147	1.4151
308.15 K	1.4111	1.4107	1.4105	1.4106	1.4108	1.4111	1.4115	1.412	1.4125	1.4129
313.15 K	1.409	1.4086	1.4084	1.4084	1.4086	1.4089	1.4093	1.4098	1.4103	1.4108
318.15 K	1.407	1.4065	1.4063	1.4063	1.4064	1.4068	1.4071	1.4076	1.4082	1.4088
323.15 K	1.4049	1.4044	1.4042	1.4042	1.4043	1.4046	1.405	1.4054	1.406	1.4067

CCOC(=O)CCC(=O)OCC [diethyl butanedioate] + CCCCO
refractive index
Settings	x1 = 0.1	x1 = 0.2001	x1 = 0.3	x1 = 0.3999	x1 = 0.5	x1 = 0.6001	x1 = 0.6998	x1 = 0.7999	x1 = 0.8997	x1 = 1
288.15 K	1.4042	1.4069	1.4094	1.4116	1.4137	1.4156	1.4173	1.419	1.4204	1.4217
293.15 K	1.4021	1.4048	1.4072	1.4094	1.4115	1.4134	1.4151	1.4168	1.4182	1.4195
298.15 K	1.4	1.4027	1.405	1.4073	1.4093	1.4112	1.4129	1.4146	1.416	1.4173
303.15 K	1.3979	1.4005	1.4029	1.4051	1.4071	1.409	1.4107	1.4123	1.4138	1.4151
308.15 K	1.3958	1.3983	1.4007	1.4029	1.4049	1.4068	1.4085	1.4101	1.4116	1.4129
313.15 K	1.3936	1.3962	1.3985	1.4007	1.4027	1.4046	1.4063	1.4079	1.4094	1.4108
318.15 K	1.3915	1.394	1.3963	1.3985	1.4005	1.4024	1.4041	1.4058	1.4073	1.4088
323.15 K	1.3894	1.3918	1.3942	1.3963	1.3983	1.4002	1.402	1.4036	1.4052	1.4067

CCOC(=O)CCC(=O)OCC [diethyl butanedioate] + CCCO
refractive index
Settings	x1 = 0.1	x1 = 0.2	x1 = 0.2999	x1 = 0.3998	x1 = 0.4999	x1 = 0.6001	x1 = 0.7001	x1 = 0.8002	x1 = 0.8997	x1 = 1
288.15 K	1.394	1.3993	1.4037	1.4075	1.4107	1.4135	1.416	1.4182	1.4201	1.4217
293.15 K	1.3918	1.3971	1.4016	1.4053	1.4085	1.4113	1.4138	1.416	1.4179	1.4195
298.15 K	1.3897	1.395	1.3994	1.4031	1.4063	1.4091	1.4116	1.4138	1.4157	1.4173
303.15 K	1.3876	1.3928	1.3972	1.4009	1.4041	1.4069	1.4094	1.4116	1.4135	1.4151
308.15 K	1.3854	1.3906	1.3949	1.3986	1.4018	1.4047	1.4072	1.4094	1.4113	1.4129
313.15 K	1.3831	1.3883	1.3927	1.3964	1.3996	1.4025	1.4049	1.4072	1.4091	1.4108
318.15 K	1.3809	1.3861	1.3905	1.3942	1.3974	1.4002	1.4027	1.4049	1.4069	1.4088
323.15 K	1.3787	1.3839	1.3882	1.392	1.3952	1.398	1.4005	1.4027	1.4048	1.4067

— the NIST ThermoML archive (doi:10.1016/j.jct.2016.06.016)
